One assay deals with Vaccinia virus. The format is in vivo, mouse. The settings on record: for Number of pox / Inhibition percent: intraperitoneal; for Number of pox: 8th day after inoculation; for Inhibition percent: 8th day, vs control mouse.
In a further assay the test system is spleen cells of a mouse. The format is cell-based.

Values joined by “and” are separate entries in the source; they are usually repeats but may differ in a detail not shown here. Equal entries are not always repeated. Where two headings read alike, the source gives them in different places.

Turning to `COC(=O)C1N2C(=O)C3(CC(C#N)=C(c4ccccc4)N3)C2SC1(C)C` (stereo not drawn) [3'-Cyano-2'-phenyl-2'-pyrroline-5'-spiro-6-penicillanic acid methyl ester], the figures for the Number of pox in the assay with Vaccinia virus (0.49 mg/kg × 4 times), in the assay with Vaccinia virus (1.95 mg/kg × 4 times) and in the assay with Vaccinia virus (7.8 mg/kg × 4 times) were 16.0, 9.1 and 11.2, respectively. In addition, the Inhibition percent with Vaccinia virus (0.49 mg/kg × 4 times) worked out at 34.7%; with Vaccinia virus (1.95 mg/kg × 4 times), 62.9%; with Vaccinia virus (7.8 mg/kg × 4 times), 54.3%. Besides, the “interferon inducibility (in words)” value with Vaccinia virus (conclusion after in vivo test) was “excellent interferon inducibility”. For the same compound, in the assay with spleen cells of a mouse, the Interferon titre was 320 unit and 160 unit. Besides, the “units of interferon induced” value with spleen cells of a mouse is 320 units.

The values are drawn from patent US4064137A (priority 1976, dated 1977).
